For series [1] the following is noted: reported; cited from earlier work.
For series [2] the following is noted: reported; cited from earlier work. The source holds these as a separate data set.
Series [3] concerns the target recombinant human PDE3A (Homo sapiens (Human), UniProt Q14432). Description: In vitro inhibitory activity against PDE 3A enzyme (fluorescence polarization). The class given is biochemical. The following applies: 1 μM cAMP. Here is the method: (§1) Experimental objective: to determine the AMP/GMP expression based on fluorescence polarization, i.e., to trace binding of AMP/GMP to antibody so as to indicate enzyme activity.
Experimental buffer solution: 10 mM Tris-HCl (pH 7.5), 5 mM MgCl2, 0.01% Brij 35, 1 mM Dithiothreitol (DTT), and 1% DMSO.
Enzyme: recombinant human PDE3A (Gene accession number: NM_000921; amino acid 669-end) was expressed by baculovirus in Sf9 insect cells using an N-terminal GST tag, with molecularweight being 84 kDa.
(§2) Enzyme substrate: 1 μM cAMP
(§3) Detection: Transcreener® AMP2/GMP2 antibody and AMP2/GMP2 AlexaFluor633 tracer.
(§4) • 1. The recombinant human PDE3A enzyme and enzyme substrate (1 μM cAMP) were each dissolved in newly-prepared experimental buffer solution; • 2. The PDE3A enzyme buffer solution was transferred into reaction wells; • 3. The compound which was dissolved in 100% DMSO was added to the reaction wells containing PDE3A enzyme buffer solution by acoustic technique (echo 550; millilambda range) and the mixture was incubated for 10 minutes at room temperature; • 4. The enzyme substrate buffer solution was added to the above reaction wells to initiate reaction; • 5. The resulting mixture was incubated at room temperature for 1 hour; • 6. The detection mixture (Transcreener® AMP2/GMP2 antibody and AMP2/GMP2 AlexaFluor633 tracer) was added to stop the reaction, and the resulting mixture was incubated for 90 minutes while slowly mixing. The measurement range of fluorescence polarization was Ex/Em=620/688.
(§5) Data analysis: the fluorescence polarization signal was converted to nM based on AMP/GMP standard curve and the percentage enzyme activity relative to DMSO control calculated by Excel. GraphPad Prism was used for curve fitting (drawing medical icon).

The target of series [4] is recombinant human PDE4B (Homo sapiens (Human), UniProt Q07343). Description: In vitro inhibitory activity against PDE 4B enzyme (fluorescence polarization). The series is classed as biochemical. Conditions: 1 μM cAMP. Here is the method: as §1
Sequence of recombinant human PDE4B (Q07343 305-736 limits assumed): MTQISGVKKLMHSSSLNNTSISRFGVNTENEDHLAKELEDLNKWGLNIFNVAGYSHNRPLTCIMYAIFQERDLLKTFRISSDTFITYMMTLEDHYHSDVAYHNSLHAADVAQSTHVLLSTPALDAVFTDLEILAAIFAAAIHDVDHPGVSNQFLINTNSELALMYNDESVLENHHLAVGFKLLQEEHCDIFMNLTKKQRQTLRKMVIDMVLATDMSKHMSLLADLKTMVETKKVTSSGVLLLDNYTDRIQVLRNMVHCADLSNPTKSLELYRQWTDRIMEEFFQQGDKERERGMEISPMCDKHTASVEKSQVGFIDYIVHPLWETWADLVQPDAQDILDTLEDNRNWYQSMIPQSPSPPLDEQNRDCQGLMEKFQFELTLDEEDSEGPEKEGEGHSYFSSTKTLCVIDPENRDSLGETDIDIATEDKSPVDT
Experimental buffer solution: 10 mM Tris-HCl (pH 7.5), 5 mM MgCl2, 0.01% Brij 35, 1 mM DTT, and 1% DMSO.
Enzyme: recombinant human PDE4B (Gene accession number: NM_002600; amino acid 305-end) was expressed by baculovirus in Sf9 insect cells using an N-terminal GST tag, with molecularweight being 78 kDa.
as §2, §3
as §4, with “PDE4B” for “PDE3A”, “newly prepared” for “newly-prepared”
as §5
On the technique in general: Polarisation of emitted light reports the rotation of a fluorescent probe.

Series [5] is described as follows: Pharmacokinetic experiment in beagle dogs. The class given is in vivo. The protocol: In this study, male beagle dogs were selected as test animals, and liquid chromatography-tandem mass spectrometry (LC-MS/MS) method was used for quantitatively measuring the drug concentration in plasma of beagle dogs at different time points after intravenous injection or oral administration of compound WX036 so as to evaluate the pharmacokinetic characteristics of the compound WX036 in beagle dogs.
The clear solution of compound WX036 was injected into two 10-12 kg beagle dogs via the cephalic vein or saphenous vein, and the clear solution of test compound was administered intragastrically to two 10-12 kg beagle dogs (overnight fasted). The animals were all subjected to approximately 500 μL of blood collection each time from peripheral veins at 0.0333, 0.0833, 0.25, 0.5, 1, 2, 4, 6, 8, and 24 hours post-dose, and the blood was transferred into commercial centrifuge tubes containing 0.85-1.15 mg of K2 EDTA*2H2O anticoagulant, and plasma was taken by centrifugation at 3000 g for 10 minutes at 4° C. The plasma concentration was measured by LC-MS/MS method, and the relevant pharmacokinetic parameters were calculated by WinNonlin™ Version 6.3 (Pharsight, Mountain View, CA) pharmacokinetic software using non-compartmental model linear logarithmic trapezoid method.

The values that follow come from patent US20240294526A1, “FUSED TRI-CYCLIC COMPOUND AS A PDE3/PDE4 DUAL INHIBITOR” (CHIA TAI TIANQING PHARMACEUTICAL GROUP CO., LTD., priority 2018, published 2024).

As a reminder, the IC50 is the concentration that gives 50% inhibition.

Sequence of recombinant human PDE3A (Q14432 669-1141 limits assumed): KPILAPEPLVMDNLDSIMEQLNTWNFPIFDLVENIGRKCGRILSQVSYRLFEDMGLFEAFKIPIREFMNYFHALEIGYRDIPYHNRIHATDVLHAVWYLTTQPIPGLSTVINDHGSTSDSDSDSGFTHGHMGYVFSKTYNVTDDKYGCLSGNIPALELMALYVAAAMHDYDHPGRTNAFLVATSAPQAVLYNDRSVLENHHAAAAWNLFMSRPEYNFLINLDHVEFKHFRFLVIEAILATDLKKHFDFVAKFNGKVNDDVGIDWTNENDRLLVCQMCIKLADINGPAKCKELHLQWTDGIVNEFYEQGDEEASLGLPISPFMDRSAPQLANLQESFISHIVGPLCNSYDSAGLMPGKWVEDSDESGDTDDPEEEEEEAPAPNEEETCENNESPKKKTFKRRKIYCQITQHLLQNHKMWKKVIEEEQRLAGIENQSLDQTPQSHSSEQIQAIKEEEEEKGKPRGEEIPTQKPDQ

Consider `COc1cc2c(cc1OC)-c1c/c(=N\c3c(C)cc(C)cc3C)n(CCNC(N)=O)c(=O)n1CC2` [RPL554], for which the solubility result in series [1] was “poor”. In series [2], the plasma clearance result is “high”.

For the compound `COc1cc2c(cc1OC)-c1cc(Oc3c(C(C)C)cccc3C(C)C)nc(=O)n1CC2` [RPL565], the solubility entry in series [1] is given as “poor”. In series [2], the plasma clearance entry is listed as “high”.

`CCOc1cc2c(cc1OC)-c1c/c(=N\c3c(C)cc(C)cc3C)n(CCNc3nc[nH]n3)c(=O)n1CCC2` [WX004]: the IC50 in series [3] worked out at 0.63 nM; in series [4], 0.12 nM.

For the compound `CCOc1cc2c(cc1OC)-c1c/c(=N\c3c(C)cc(C)cc3C)n(CCNC(=O)c3cnn[nH]3)c(=O)n1CC2` [WX016], the IC50 in series [4] turned out to be 0.24 nM.

Consider `CCOc1cc2c(cc1OC)-c1c/c(=N\c3c(C)cc(C)cc3C)n(CCNC(=O)c3ncc[nH]3)c(=O)n1CC2` [WX017], for which the IC50 in series [4] was found to be 0.43 nM.

`CCOc1cc2c(cc1OC)-c1c/c(=N\c3c(C)cc(C)cc3C)n(CCNC(=O)c3ccn[nH]3)c(=O)n1CC2` [WX018]: the IC50 in series [4] was 0.05 nM.

Regarding `CCOc1cc2c(cc1OC)-c1c/c(=N\c3c(C)cc(C)cc3C)n(CCNC(=O)c3ncco3)c(=O)n1CC2` [WX019], the IC50 in series [4] stood at 0.48 nM.

In the case of `CCOc1cc2c(cc1OC)-c1c/c(=N\c3c(C)cc(C)cc3C)n(CCNC(=O)c3ncon3)c(=O)n1CC2` [WX020], the IC50 in series [4] is 0.47 nM.

`CCOc1cc2c(cc1OC)-c1c/c(=N\c3c(C)cc(C)cc3C)n(CCNC(=O)c3cnc[nH]3)c(=O)n1CC2` [WX021]: the IC50 in series [4] worked out at 1.1 nM.

In the case of `CCOc1cc2c(cc1OC)-c1c/c(=N\c3c(C)cc(C)cc3C)n(CCNC(=O)c3[nH]nnc3N)c(=O)n1CC2` [WX025], the IC50 in series [4] is 0.44 nM.

Regarding `CCOc1cc2c(cc1OC)-c1c/c(=N\c3c(C)cc(C)cc3C)n(CCNC(=O)c3[nH]nnc3OC)c(=O)n1CC2` [WX026], the IC50 in series [4] was 2.5 nM.

In the case of `CCOc1cc2c(cc1OC)-c1c/c(=N\c3c(C)cc(C)cc3C)n(CCNC(=O)c3c(O)nnn3C)c(=O)n1CC2` [WX036], the “Area under plasma concentration-time curve (0-inf)” value in series [5] (intravenous injection 0.5 mg/kg) amounted to 0.21 µM·h. Also, in series [5] (oral administration 3 mg/kg), the “Area under plasma concentration-time curve (0-inf)” value was 0.123 µM·h, the Peak concentration came to 59.4 nM and the Time to peak stood at 0.6 h.

For `CCOc1cc2c(cc1OC)-c1c/c(=N\c3c(C)cc(C)cc3C)n(CCNC(=O)c3[nH]ncc3OC)c(=O)n1CC2` [WX037], the IC50 in series [4] was 1.7 nM.

Regarding `CCOc1cc2c(cc1OC)-c1c/c(=N\c3c(C)cc(C)cc3C)n(CCNC(=O)c3nnc[nH]3)c(=O)n1CCC2` [WX047], the IC50 in series [3] was 0.1 nM; in series [4], 0.16 nM.

As for `CCOc1cc2c(cc1OC)-c1c/c(=N\c3c(C)cc(C)cc3C)n(CCNC(=O)c3cnn[nH]3)c(=O)n1CCC2` [WX048], the values for the IC50 in series [3] and in series [4] were 0.03 nM and 0.27 nM, respectively.

For `CCOc1cc2c(cc1OC)-c1c/c(=N\c3c(C)cc(C)cc3C)n(CCNC(=O)c3cnc[nH]3)c(=O)n1CCC2` [WX049], the IC50 in series [3] is 0.3 nM; in series [4] it was 0.05 nM.

Regarding `CCOc1cc2c(cc1OC)-c1c/c(=N\c3c(C)cc(C)cc3C)n(CCNC(=O)c3ccn[nH]3)c(=O)n1CCC2` [WX050], the IC50 was found to be 1.1 nM in series [3] and 0.24 nM in series [4].

On to `CCOc1cc2c(cc1OC)-c1c/c(=N\c3c(C)cc(C)cc3C)n(CCNC(=O)c3ccn[nH]3)c(=O)n1CCO2` [WX052], for which the IC50 was determined as 0.5 nM in series [3] and 0.18 nM in series [4].

Regarding `CCOc1cc2c(cc1OC)-c1c/c(=N\c3c(C)cc(C)cc3C)n(CCNC(=O)c3cnn[nH]3)c(=O)n1CCO2` [WX053], the results for the IC50 in series [3] and in series [4] were 0.57 nM and 1.9 nM, respectively.

Take `CCOc1cc2c(cc1OC)-c1c/c(=N\c3c(C)cc(C)cc3C)n(CCC(=O)Nc3cnn[nH]3)c(=O)n1CC2` [WX055]: the IC50 in series [4] is 2.1 nM.

`CCOc1cc2c(cc1OC)-c1c/c(=N\c3c(C)cc(C)cc3C)n(CCC(=O)Nc3ncco3)c(=O)n1CC2` [WX056]: in series [4], the IC50 came out at 9.1 nM.

As to `CCOc1cc2c(cc1OC)-c1c/c(=N\c3c(C)cc(C)cc3C)n(CCC(=O)Nc3cn[nH]c3)c(=O)n1CC2` [WX057], the half-maximal inhibitory concentration (IC50) in series [4] turned out to be 5.4 nM.
